Experiments:
[1] = tested on: rat BMSCs (rBMSCs); assay: ALP activity in rat bone marrow stromal cells; format: cell-based; settings: 1 nM, seven days post-treatment
[2] = tested on: mouse BMSCs (mBMSCs); assay: BrdU proliferation assay in mBMSCs; format: cell-based; settings: 1 nM
Description: Rat and mouse bone marrow stromal cells (BMSCs) were seeded at a density of 4000 cells/well in a 96-well plate for cell proliferation and treated with 1 nM of MTZ for 48 h in a growth medium (α-MEM containing 10% FBS). Following the MTZ treatment, the cells were incubated for 4 h with bromodeoxyuridine (BrdU) before termination. Cell proliferation was assessed at 450 nm using the Roche Diagnostics BrdU ELISA kit, in accordance with the manufacturer’s protocol, using a reference wavelength of 690 nm.

[3] = tested on: rat BMSCs (rBMSCs); assay: Nodule mineralization (Alizarin Red S) in rBMSCs; format: cell-based; settings: 21 days post-treatment, differentiation medium
Description: Rat and mouse BMSCs were seeded at a density of 1 × 10^6 cells/well in a 6-well plate, vehicle or MTZ (1 nM) treatment was conducted, and the media were changed every alternate day for 21 days using a differentiation medium [10% FBS, β-glycerophosphate (10 mM), ascorbic acid (50 µg/mL), and dexamethasone (100 nM) in α-MEM].
(§1) Cells were fixed with 10% formalin for 15 min and stained with Alizarin Red for 1 h after 21 days of culture. Moreover, 10% cetylpyridinium chloride (Sigma #C0732) was used to quantify mineralized nodules at a 595 nm wavelength.

[4] = tested on: C3H10T1/2 cells; assay: Nodule mineralization (Alizarin Red S) in C3H10T1/2 cells; format: cell-based, murine; settings: 21 days, differentiation medium
Description: In a different set of experiments, 3 × 10^6 C3H10T1/2 cells were seeded in a 60 mm culture dish. Then, 24 h post-seeding, the vehicle or MTZ treatment was conducted, and the media were changed every alternate day for 21 days using a differentiation medium.
as §1

[5] = tested on: Runx2 expression in C3H10T1/2 cells; assay: Western blotting of Runx2 in C3H10T1/2 cells; format: cell-based, murine; settings: 10 nM
Description: Western blotting was performed as previously described. Briefly, whole-cell extracts (WCEs) were prepared at indicated time points using RIPA lysis buffer, and aliquots of 30 μg protein per lane were loaded and resolved on SDS-PAGE (10%), followed by blotting onto the PVDF membrane (Millipore Inc., Burlington, MA, USA). The membrane was blocked in 1% BSA, followed by immunoblotting with primary antibodies: Runx2 (ab 76956) (1:1000), pGSK (9323S) (1:1000), and GSK (9315S) (1:1000) at 4 °C overnight. Anti-rabbit HRP secondary antibody (Sigma, catalog number A0545) (1:3000) was used for Runx2, pGSK3β, and GSK3β. Bands were detected by incubating the membranes with ECL substrate (Thermo Fisher Scientific, Waltham, MA, USA) and developed on ChemiDoc (Image Quant LAS 4000, GE Healthcare, Hatfield, UK). Blots were re-probed after washing with mild stripping buffer (1.5% Glycine, 0.1% SDS, and 1% Tween 20).

[6] = tested on: Wnt/β-catenin signaling (TOP-Flash reporter, HEK293T cells); assay: Wnt/β-catenin TOP-Flash reporter assay; format: cell-based; settings: 24 h
Description: The effect of MTZ on β-catenin signaling was assayed using a TOP-Flash reporter plasmid that contained a minimal TA viral promoter coupled to β-catenin-responsive TCF/LEF-binding sites upstream of a firefly luciferase gene (a kind gift from Prof. Yosef Yarden, WIS, Israel). Briefly, HEK293T cells were transfected with 0.5 μg of the TOP-Flash plasmid. Additionally, the GFP-encoding plasmid, pEGFP, was transfected as a control for transfection efficiency. […] In white opaque plates, the lysate and 100 μL of luciferase assay buffer (10 mM KH2PO4, 2 mM ATP, 1 mM D-luciferin, NaCl, and MgCl2) were added, and luminescence was measured. Luminescence values were normalized by EGFP plasmid fluorescence value, and the fold-change was calculated relative to the control.

[7] = tested on: femur head strength of OVX rats; assay: OVX osteopenia model, femur head compression test; format: in vivo, SD rats; settings: 235 mg/kg oral, 3 months
Description: The 10-month-old (265 ± 20 g) SD rats were ovariectomized (OVX) bilaterally and left for 3 months to develop osteopenia. Ovary-intact sham-operated animals were used as a control. A live animal micro-CT was performed to confirm osteopenia, followed by dividing the animals into 3 groups: Sham + vehicle (water, oral), OVX + vehicle (water, oral), and OVX + MTZ (235 mg/kg, oral). Each group had 9 rats, and treatment were administered for 3 months. Calcein (20 mg/kg, s.c.) was injected twice before sacrificing at 10-day intervals. The mechanical compression strength of the femur head was examined by a compression test with a bone strength tester, TK […] (Muromachi Kikai Co., Ltd., Tokyo, Japan), as described before.

[8] = tested on: bone formation in femur metaphysis of OVX rats; assay: OVX osteopenia model, dynamic bone histomorphometry (double calcein labeling); format: in vivo, SD rats; settings: 235 mg/kg oral, 3 months
Description: (§2) The 10-month-old (265 ± 20 g) SD rats were ovariectomized (OVX) bilaterally and left for 3 months to develop osteopenia. Ovary-intact sham-operated animals were used as a control. A live animal micro-CT was performed to confirm osteopenia, followed by dividing the animals into 3 groups: Sham + vehicle (water, oral), OVX + vehicle (water, oral), and OVX + MTZ (235 mg/kg, oral). Each group had 9 rats, and treatment were administered for 3 months. Calcein (20 mg/kg, s.c.) was injected twice before sacrificing at 10-day intervals.
Two calcein injections were spaced ten days apart for double calcein labeling to perform dynamic histomorphometric assessments. A previously published protocol was used to calculate the bone formation rate/total bone surface (BFR/BS), mineralizing surface/bone surface (MS/BS), and mineral apposition rate (MAR).

[9] = tested on: serum P1NP and CTX-I of OVX rats; assay: OVX osteopenia model, serum bone turnover markers (ELISA); format: in vivo, SD rats; settings: 235 mg/kg oral, 3 months
Description: as §2, with “intervals. The levels of serum procollagen type I N-terminal peptide (P1NP) and serum cross-linked C-telopeptide of type I collagen (CTX-I) were assessed using ELISA (MyBioSource, San Diego, CA, USA), in accordance with the manufacturer’s protocol.” for “intervals.”

With `Cc1ncc([N+](=O)[O-])n1CCO` [Metronidazole] the “ALP activity compared to the vehicle group” value [1] was “increased”, the “Proliferation (BrdU incorporation)” value [2] was “did not affect” and the “Osteogenic differentiation and mineralized nodule formation” value [3] was “stimulated”. For the same molecule, the Mineralization [4] was “promoted mineralization”, the Runx2 expression [5] was “increased” and the TOP-Flash reporter activity [6] was “increased”. For the same molecule, the “Energy (femur head compression)” value [7] was “reversed both parameters to sham levels”, the “Maximum power (femur head compression)” value [7] was “reversed both parameters to sham levels” and the “Stiffness (femur head compression)” value [7] was “failed to increase it”. The BFR [8] was “reversed all parameters to sham levels”, the MAR [8] was “reversed all parameters to sham levels” and the MS/BS [8] was “reversed all parameters to sham levels”. The “Serum bone formation marker P1NP levels” value [9] was “restored” and the “Serum resorption marker CTX-1” value [9] was “failed to reduce it”.

Source: publication PMC11274654 (Biomedicines, 2024)
